In PubChem BioAssay AID1259342 (Broad Institute, 2017):
Calls of active or inactive are those of the source.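 The calls were made as follows: active = fitted half-maximal inhibitory concentration AC50 at most ten times the top concentration tested; inconclusive = flat fit with 30 to 70% inhibition, or unusable fit; inactive = AC50 above ten times the top concentration.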

Target: E3 ubiquitin-protein ligase TRIM62 (Homo sapiens) (UniProt Q9BVG3)
Test: inhibitors of TRIM62-driven CARD9 ubiquitylation, dose response, CARD9-TRIM62 disruptor project, biochemical, ubiquitin ELISA, AlphaLISA TUBE (AID 1259342);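 as to AC50: potency is for inhibitors that reduce CARD9 ubiquitylation signal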
Settings: TRIM62-mediated CARD9 ubiquitylation, AlphaLISA TUBE detection; for activity change, negative = inhibition: at 80 µM (top of the series)

Sequence of E3 ubiquitin-protein ligase TRIM62 (Homo sapiens) (Q9BVG3 whole entry, looked up): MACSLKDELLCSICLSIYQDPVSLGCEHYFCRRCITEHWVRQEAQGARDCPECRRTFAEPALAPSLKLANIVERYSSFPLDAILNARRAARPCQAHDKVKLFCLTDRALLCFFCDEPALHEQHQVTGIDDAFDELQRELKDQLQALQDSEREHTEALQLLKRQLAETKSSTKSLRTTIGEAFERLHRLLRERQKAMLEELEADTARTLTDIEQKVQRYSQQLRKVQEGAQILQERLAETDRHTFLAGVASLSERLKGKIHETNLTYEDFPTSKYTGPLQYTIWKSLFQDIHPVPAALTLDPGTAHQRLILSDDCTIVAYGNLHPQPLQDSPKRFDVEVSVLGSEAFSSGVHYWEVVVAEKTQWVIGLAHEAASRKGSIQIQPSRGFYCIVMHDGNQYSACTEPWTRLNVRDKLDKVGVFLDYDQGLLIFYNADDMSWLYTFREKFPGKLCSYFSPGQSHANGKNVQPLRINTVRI

SMILES	activity change, negative = inhibition	AC50
CN(C)c1ccc(CN2C[C@H]3CC[C@@H]2CN(C(=O)c2ccncc2)C3)cn1	inactive	–
CC1(C)Cc2c(c(N3CCOCC3)nc3sc(C(=O)NCc4ccco4)c(N)c23)CO1	inactive	–
Cc1cccc(NC(=O)Cc2coc3ccc4ccccc4c23)n1	–	70 µM
O=c1oc(-c2ccccc2)nc2sc3c(c12)CCC3	–	> 160 µM (inactive)

Continued, values first:

activity change, negative = inhibition	AC50	SMILES
inactive	–	O=C(Nc1ccc2oc(-c3cccnc3)nc2c1)c1ccc2c(c1)OCCO2
–	47.4 µM	CC1=CCC(C(=O)O)C(C(=O)NC2CCCCC2)C1 (centres undefined)
inactive	–	C=CCNc1ncnc2c1CCN(C(=O)c1ccc(CSC)o1)CC2
inactive	–	O=[N+]([O-])c1cccc(-c2nnc3ccc4ccccc4n23)c1
–	41.2 µM	O=C(Cc1cccs1)Nc1nnc(Cc2ccccc2)s1
